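These data come from cells grown in 96-well plates and exposed to compound for 48 hours at five concentrations. GI50: concentration for 50% inhibition of growth. Definition used: TGI = concentration required for complete inhibition of growth.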
Experiments:
Assay in all cases: NCI-60 cell line screen, 48 h
DLD-1 colon = tested on: DLD-1 colon
DMS 114 small cell lung = tested on: DMS 114 small cell lung
DMS 273 small cell lung = tested on: DMS 273 small cell lung
LXFL 529 NSCLC = tested on: LXFL 529 NSCLC
M19-MEL melanoma = tested on: M19-MEL melanoma
RXF-631 renal = tested on: RXF-631 renal
XF 498 CNS = tested on: XF 498 CNS
HOP-18 NSCLC = tested on: HOP-18 NSCLC
MDA-N = tested on: MDA-N

Compound	TGI (DLD-1 colon)	TGI (DMS 114 small cell lung)	TGI (DMS 273 small cell lung)	TGI (LXFL 529 NSCLC)	TGI (M19-MEL melanoma)	TGI (RXF-631 renal)	TGI (XF 498 CNS)	TGI (HOP-18 NSCLC)	TGI (MDA-N)	GI50 (DLD-1 colon)	GI50 (DMS 273 small cell lung)	GI50 (HOP-18 NSCLC)	GI50 (LXFL 529 NSCLC)	GI50 (M19-MEL melanoma)	GI50 (DMS 114 small cell lung)
CC(C(=O)c1ccc(O)cc1)C1(O)C(=O)Nc2c(Cl)cc(Cl)cc21 (centres undefined)	> 100 µM	24.2 µM	> 100 µM	> 93.7 µM	57.6 µM	> 100 µM	47.8 µM	–	–	–	–	–	–	–	–
COC(=O)c1ccc(N/C=C(/C#N)c2ccsc2)cc1	> 100 µM	43.8 µM	37.4 µM	37.5 µM	> 100 µM	–	–	–	–	–	–	–	–	–	–
COc1ccc(C2C(C(=O)O)=C(CO)Oc3cc4c(cc32)OCO4)c(OC)c1 (centres undefined)	> 100 µM	> 100 µM	> 100 µM	–	> 100 µM	> 100 µM	> 100 µM	> 100 µM	–	–	–	–	–	–	–
CN(C)C(=S)/N=C(\N)N(C)C	> 100 µM	> 100 µM	> 100 µM	> 100 µM	> 100 µM	> 100 µM	> 100 µM	> 100 µM	–	–	–	–	–	–	–
CNC(=O)NCCCCC(NC(=O)OCc1ccccc1)C(=O)OCc1ccccc1 (centres undefined)	> 100 µM	65.7 µM	> 100 µM	> 100 µM	48 µM	46.1 µM	33.2 µM	–	–	–	–	–	–	–	–
NC(=O)/C=C/c1c[nH]c2nccnc12	4.83 µM	8.53 µM	10.5 µM	0.611 µM	79 µM	–	–	0.793 µM	> 75.2 µM	–	–	–	–	–	–
CC(C)(C)CC(C)(C)c1cc2c(O)c(c1)Cc1cc(C(C)(C)CC(C)(C)C)cc(c1O)Cc1cc(C(C)(C)CC(C)(C)C)cc(c1O)Cc1cc(C(C)(C)CC(C)(C)C)cc(c1O)Cc1cc(C(C)(C)CC(C)(C)C)cc(c1O)Cc1cc(C(C)(C)CC(C)(C)C)cc(c1O)Cc1cc(C(C)(C)CC(C)(C)C)cc(c1O)Cc1cc(C(C)(C)CC(C)(C)C)cc(c1O)C2	> 100 µM	–	> 100 µM	> 100 µM	> 100 µM	–	> 100 µM	–	–	–	–	–	–	–	–
C=CC(=O)OCCCS(=O)(=O)[O-].C=CC(=O)OCCCS(=O)(=O)[O-].NC1CCCCC1N.[Pt+4]	> 25 µM	–	> 25 µM	> 25 µM	> 25 µM	–	–	> 25 µM	–	> 25 µM	> 25 µM	> 25 µM	> 25 µM	> 25 µM	–
CC1=C(C(=O)NCc2ccccc2)C(c2ccc(N(C)C)cc2)C(C(=O)NCc2ccccc2)=C(C)N1	> 100 µM	> 100 µM	> 100 µM	> 100 µM	> 100 µM	> 100 µM	> 100 µM	–	–	–	–	–	–	–	–
N#CC1=C(N)Oc2c(ccc3cccnc23)C1c1ccccc1 (centres undefined)	> 100 µM	7.98 µM	> 100 µM	> 100 µM	> 100 µM	–	77.7 µM	> 100 µM	–	–	–	–	–	–	–
O=C(/C=C/c1ccco1)N1CCN(Cc2ccccc2)CC1	> 100 µM	> 100 µM	> 100 µM	> 100 µM	> 100 µM	> 100 µM	> 100 µM	> 100 µM	–	–	–	–	–	–	–
COc1cc2ccnc(-c3n[nH]c4cc(OC)c(OC)cc34)c2cc1OC	–	> 100 µM	> 100 µM	> 100 µM	> 100 µM	93.4 µM	> 100 µM	> 100 µM	–	–	–	–	–	–	–
C=C(C)C1Cc2cc(C(C)=O)ccc2O1 (centres undefined)	–	–	–	–	–	–	–	–	> 100 µM	–	–	–	–	–	–
CC(C)=CC1(C)/C(=N\O)C(C)(CC(C)C)C(=O)N1O (centres undefined)	> 100 µM	> 100 µM	> 100 µM	> 100 µM	> 100 µM	> 100 µM	> 100 µM	–	–	–	–	–	–	–	–
O=C(O)c1ccccc1C(=O)Nc1cc2c(cc1Br)-c1ccccc1C2=O	–	–	–	–	–	–	–	–	> 100 µM	–	–	–	–	–	–
NC(CCSCCF)C(=O)O (centres undefined)	–	> 100 µM	> 100 µM	> 100 µM	> 100 µM	–	–	> 100 µM	–	–	–	–	–	–	–
CSc1ccc(NC(=O)CCl)cc1	–	–	–	–	–	–	–	–	> 10 µM	–	–	–	–	–	–
COc1ccc2c3c1OC1C4(CCC5C(C2)N(CC2CC2)CCC351)OCCO4 (centres undefined)	–	–	–	–	–	–	–	–	> 100 µM	–	–	–	–	–	–

Compound	TGI (DLD-1 colon)	TGI (DMS 114 small cell lung)	TGI (DMS 273 small cell lung)	TGI (LXFL 529 NSCLC)	TGI (M19-MEL melanoma)	TGI (RXF-631 renal)	TGI (XF 498 CNS)	TGI (HOP-18 NSCLC)	TGI (MDA-N)	GI50 (DLD-1 colon)	GI50 (DMS 273 small cell lung)	GI50 (HOP-18 NSCLC)	GI50 (LXFL 529 NSCLC)	GI50 (M19-MEL melanoma)	GI50 (DMS 114 small cell lung)
Cc1c(-c2cc(-c3ccccc3)n[nH]c2=O)c2ccccc2n1C	> 100 µM	> 100 µM	> 100 µM	> 100 µM	> 100 µM	–	> 100 µM	> 100 µM	–	–	–	–	–	–	–
Nc1ncnc2c1N=CN(Oc1ccccc1)N2	> 100 µM	> 100 µM	> 100 µM	> 100 µM	> 100 µM	> 100 µM	> 100 µM	–	–	–	–	–	–	–	–
Cn1c(=O)c2[nH]c(CCS)nc2n(C)c1=O	–	–	–	–	–	–	–	–	> 100 µM	–	–	–	–	–	–
CC(C)(C)[Si](C)(C)O/N=C\c1cccc(O[Si](C)(C)C(C)(C)C)c1	33.6 µM	35.6 µM	32.6 µM	29.1 µM	34.6 µM	–	32.7 µM	42.3 µM	–	–	–	–	–	–	–
CCOc1cc(CCNC)c2c(ccc3ccc(OC)c(O)c32)c1OC	–	–	–	–	–	–	–	–	10.5 µM	–	–	–	–	–	–
O=C(CC(=O)c1cccc2ccccc12)C(=O)Nc1nccs1	> 100 µM	–	> 100 µM	> 100 µM	> 100 µM	–	–	> 100 µM	–	–	–	–	–	–	–
CC/C(=N/O)C(C)C(=O)CCC(=O)Nc1ccc(Cl)cc1 (centres undefined)	> 100 µM	> 100 µM	> 100 µM	> 100 µM	> 100 µM	–	> 100 µM	> 100 µM	–	–	–	–	–	–	–
COc1ccccc1NC(=O)C1=C(C)NC(C)=C(C(=O)Nc2ccccc2OC)C1c1ccc(C2C(C(=O)Nc3ccccc3OC)=C(C)NC(C)=C2C(=O)Nc2ccccc2OC)cc1	2.66 µM	21.6 µM	8.67 µM	5.09 µM	11.5 µM	13.7 µM	5.64 µM	31.9 µM	–	–	–	–	–	–	–
Cn1c(=S)c2[nH]c(SCc3cccnc3)nc2n(C)c1=O	–	–	–	–	–	–	–	–	> 100 µM	–	–	–	–	–	–
NC(=S)N/N=C1/C(=O)N(c2ccccc2)C(=O)C1C(=O)Nc1ccccc1 (centres undefined)	–	> 100 µM	> 100 µM	> 100 µM	> 100 µM	> 100 µM	> 100 µM	> 100 µM	–	–	–	–	–	–	–
Cc1cccc(/C=N/N=C(\N)NO)n1	> 100 µM	> 100 µM	> 100 µM	53.1 µM	> 100 µM	> 100 µM	> 100 µM	–	–	–	–	–	–	–	–
CCCCCCCCCCCc1cc(=O)c2c(O)cccc2o1	> 100 µM	> 100 µM	> 100 µM	> 100 µM	> 100 µM	> 100 µM	> 100 µM	> 100 µM	–	–	–	–	–	–	–
COC(=O)CCC(=O)Nc1cc(C)ccc1C	> 100 µM	> 100 µM	> 100 µM	> 100 µM	> 100 µM	> 100 µM	> 100 µM	> 100 µM	–	–	–	–	–	–	–
COc1ccccc1C(=O)Nc1ccc(Cl)c(C(=O)OC(C)C)c1	–	63.8 µM	> 100 µM	–	> 100 µM	> 100 µM	54.7 µM	> 100 µM	> 100 µM	–	–	–	–	–	–
CC1=CC[C@@H]2C(=O)C=CC=C[C@H]12.[C-]#[O+].[C-]#[O+].[C-]#[O+].[Fe]	> 100 µM	> 100 µM	–	–	> 100 µM	–	–	> 100 µM	–	> 100 µM	–	> 100 µM	–	> 100 µM	> 100 µM
CC(NNC(=S)N1CCN(c2ccccn2)CC1)c1cccc[n+]1[O-] (centres undefined)	–	–	–	–	–	–	–	–	> 100 µM	–	–	–	–	–	–
CC(C)(C)c1cc(C#N)c2c(c1)C(=O)OC2(c1ccccc1)c1ccccc1C#N (centres undefined)	> 100 µM	> 100 µM	> 100 µM	> 100 µM	> 100 µM	–	> 100 µM	> 100 µM	–	–	–	–	–	–	–
CCCCCC/C=C\CCCCCCCCCc1cccc(OC)c1O	–	–	–	–	–	–	–	–	> 100 µM	–	–	–	–	–	–
